In data set [1] the test system is oligodendrocyte progenitors. As to the kind of experiment: Primary/secondary screening: oligodendrocyte progenitor morphology changes and Plp-EGFP fluorescence. Format: cell-based, mouse. On the set-up: key to differentiation scale score (cell morphology): 1: bipolar, undifferentiated; 2: bipolar to tripolar, initiated differentiation; 3: multibranched, differentiated cells; 4: multibranched, differentiated cells showing membranous structures. The following applies: 10 μM, 48 hr. As for the experimental part:
Oligodendrocyte progenitors were generated from embryonic neural progenitors growing in cell aggregates known as neurospheres (Nphs). Nph were prepared from embryos at 14.5 days of gestation obtained from timed pregnant females of either wild type mice or the proteolipid protein-enhanced-green fluorescence protein (Plp-EGFP) transgenic mouse. In brief, after separation of meninges and cerebellum, cerebrum tissue was mechanically triturated with a 1 ml Gilson pipette until total tissue disaggregation was achieved, filtered through a 70 μm cell strainer (Fisher Scientific, Pittsburg, Pa.) and plated in 25 cm^2 plastic culture flasks (2 brains/flask). Nph proliferation media (NPM) was DMEM/F12, B27 neuronal supplement (Gibco, Baltimore, Md.) and 10 ng/ml EGF (Sigma, St. Louis, Mo.). After 48-72 hr, floating Nphs were passaged at a 1:3 ratio in the same medium every 3-4 days. To generate oligodendrocyte progenitors, single cells suspensions were obtained by chemical disgregation with the mouse NeuroCult dissociation kit (StemCell Technologies, Alberta, Canada). The single cell suspension was filtered through a 70 μm cell strainer and plated on 96-well poly-D-Lysine (PDL)-coated plates at a cell density of 1.5×10^4 cells/cm^2. Cells were maintained in NPM supplemented with 10 ng/ml PDGF/bFGF instead of EGF. Bipolar, oligodendrocyte progenitor cells were observed 24 hours after plating. […]
The small molecule library consists of handcrafted drug-like organic molecules with molecular weight in a range of 250-550, dissolved in DMSO at concentration of 5 mg/ml or […]. Their structure and >95% purity have been validated by NMR. […] Oligodendrocyte progenitor differentiation was scored using as 4 scale values as follows: 1: bipolar, undifferentiated; 2: bipolar to tripolar, initiated differentiation; 3: multibranched, differentiated cells; 4: multibranched, differentiated cells showing membranous structures (FIG. 1).
Differentiation induced by selected compounds was further validated by fluorescence microscopy in cells generated from our Plp-EGFP transgenic mouse. Increased fluorescence in treated oligodendrocyte progenitor was indicative of cell maturation and was again scored following the same scale. […] These were analyzed for cell toxicity assays by MTT were yellow 3-(4,5-Dimethylthiazol-2-yl)-2,5-diphenyltetrazolium bromide, a tetrazole (MTT) is reduced to purple formazan in the mitochondria of living cells, showing a solution color change measurable by OD620-590 (Data not shown). Further oligodendrocyte progenitor maturation in response to selected compounds was assessed by induction of myelin protein expression as determined by immunocytochemistry and western blot. […]

The nature of data set [2]: Solubility. It is filed as physicochemical.

`CCS(=O)(=O)N1CCN(C(=O)COc2ccc(-c3ccccc3)cc2)CC1` [Compound A, 1-[(4-biphenylyloxy)acetyl]-4-(ethylsulfonyl)piperazine]: the “differentiation scale score (cell morphology)” value in data set [1] came to 4. Turning to `CC(C)N1CCN(C(=O)COc2ccc(-c3ccccc3)cc2)CC1` [Compound A-7, 1-(Biphenyl-4-yloxy)acetyl-4-isopropylpiperazine], the solubility entry in data set [2] is reported as “high”.

The values above are taken from patent US20120172375A1, “COMPOUNDS AND METHODS OF PROMOTING OLIGODENDROCYTE PRECURSOR DIFFERENTIATION” (priority 2008, published 2012).
